Reference: PubChem BioAssay AID179 (DTP/NCI, 2004)
Values joined by “and” are separate entries in the source; they are usually repeats but may differ in a detail not shown here. Equal entries are not always repeated. Active and inactive are the calls of the source.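 Rule for the calls: active = compounds giving half or more protection of infected cells from virus-caused growth loss, again on retest; inactive = the rest.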

Test system: CEM cells HIV-1 protection, formazan growth assay
Assay: NCI AIDS Antiviral Assay
Settings: for IC50: measured here: growth of uninfected CEM cells
Procedure, shortened: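 CEM (human) cells, HIV-1 infected vs uninfected, 5-point dosing, formazan growth read-out. Retest threshold 50% protection.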

Structure (SMILES)	EC50 [µM]	IC50	outcome
N#CC1Nc2ccccc2[C@@H](O)C1O (stereo not given in full)	> 1320	240 µM	–
CCOC(=O)NC1=NCC(C)(C)S1	–	–	inactive
N#CCN1CCCCCc2ccccc21	> 200	> 200 µM	–
Cc1ccc(C)c2sc3cc(=O)ccc-3nc12	> 107	> 107 µM	–
Cc1cc(N(CCCl)CCCl)ccc1N=Nc1ccccc1	> 200	19.5 µM	–
Cc1ccc(O)c(C(c2ccc(C(c3cc(C)ccc3O)c3cc(C)ccc3O)cc2)c2cc(C)ccc2O)c1	> 20	3.09 µM	–
O=C1NC(N2CCCC(CO)C2)=N/C1=C\c1ccc(Cl)cc1 (stereo not given)	> 200	115 µM	–
COC(=O)/C(C#N)=C(/NCCN)Nc1ccccc1	> 200	> 200 µM	–
Cc1cc2c(=O)cc(-c3ccc(Cl)c(Cl)c3)oc2c(C(=O)O)c1C	–	–	inactive
Cc1cc(O)cc(O)c1C(=O)O[C@]1(C)C(=O)C=C2C=C(/C=C/C(=O)O)OC=C2C1=O	–	–	inactive
CC(=O)OCC1OC(n2c(-c3ccccc3)cc(-c3ccco3)c(C#N)c2=O)C(OC(C)=O)C(OC(C)=O)C1OC(C)=O (stereo not given)	> 17	> 17 µM and 12.6 µM	–
COc1cc(/C=C/c2ccc(OC)c(OC)c2)cc(OC)c1	–	–	inactive
O=C(OCC1OC(n2nc(Cn3nnc(-c4cccnc4)n3)n(-c3cccc4ccccc34)c2=S)C(OC(=O)c2ccccc2)C1OC(=O)c1ccccc1)c1ccccc1 (stereo not given)	> 100	> 100 µM	–
n1onc2c1NC1Nc3nonc3NC1N2 (stereo not given)	> 200	> 200 µM	–
Cn1c(Nc2ccccc2)c(C=Nc2ccccc2)c(=O)n(C)c1=O	> 100	53.7 µM	–
CCC(C)NC1=NCC(C)S1 (stereo not given)	> 200	> 200 µM	–
Cc1cc2nc(-c3ccccc3Cl)[nH]c2cc1C	> 100	32.4 µM	–
Cc1ccc(-c2cc(O)c3nc4ccccc4n3c2)cc1	> 200	> 200 µM	–
O=C(Nc1nc2ccc([N+](=O)[O-])cc2s1)C(=O)C(C1OC(=O)c2ccccc21)[N+](=O)[O-] (stereo not given)	> 81.3	51.3 µM	–
Cc1ccc(N=Nc2ccc(O)c(CN(C)C)c2)cc1	> 200	21.9 µM	–
N#Cc1c(N)[nH]c(S)c1C#N	> 123	72.4 µM	–
c1cc2sc1CSCCSCCSC2	> 38	> 38 µM	–

Structure (SMILES)	EC50 [µM]	IC50	outcome
Cc1ccc(N=N/C(=N/NC(=O)c2cc(Cl)ccc2O)c2ccc(N(CCC#N)CCC#N)cc2C)cc1	> 200	10.7 µM	–
O=C(NC1=C(Cl)C(=O)c2ccccc2C1=O)C(=O)c1c(O)c2ccccc2oc1=O	> 117	> 117 µM	–
CCc1c(O)n(Cc2nc3ccccc3[nH]2)c(=S)n(-c2ccccc2)c1=O	> 200	> 200 µM	–
CC1(C)OC[C@@H](O)[C@H](C#N)CO1	> 200	> 200 µM	–
O=C1NC2C(O)CCCCC2C12CCCCC2 (stereo not given)	–	–	inactive
Cc1ccc(/C(O)=C/c2nc3ccc([N+](=O)[O-])cc3nc2/C=C(\O)c2ccc(C)cc2)cc1	> 100	97.7 µM	–
O=S(Cc1ccccc1)c1nc2ccccc2nc1-c1cccs1 (stereo not given)	> 74.1	13.5 µM	–
Cc1ccc(-n2cc(-c3ccc(Cl)cc3)c3c2N=CN2NC(c4cccs4)=NC32)cc1 (stereo not given)	> 100	42.7 µM	–
c1ccc(N2N=C3N(c4ccccc4)C2N3c2ccccc2)cc1	> 200	30.2 µM	–
O=C1SC(c2ccccc2)(c2ccccc2)c2cscc21	> 61.7	> 61.7 µM	–
O=Nc1ccccc1C(=O)O	> 151	47.9 µM	–
CN(C)CC1CCCC(CN(C)C)C1O (stereo not given)	> 871	> 871 µM	–
Cc1cc(-c2ccc(N=Nc3c(S(=O)(=O)O)cc4cc(S(=O)(=O)O)cc(N)c4c3O)c(C)c2)ccc1N=Nc1ccc2c(S(=O)(=O)O)ccc(N)c2c1O	–	–	inactive
CCOP(=O)(OCC)/C(C#N)=C/c1cccn1Cc1ccccc1	> 200	25.1 µM	–
Cc1cc(=O)n(-c2ccccc2)c(=O)o1	–	–	inactive
COc1cc(C2SCC(=O)N2c2ccc(-n3c(-c4ccccc4)nc4ccccc4c3=O)cc2)cc(OC)c1OC (stereo not given)	> 200	178 µM	–
COc1cc(OS(=O)(=O)O)c2c(c1)cc(O)c1c(=O)cc(C)oc12	> 151	> 151 µM	–
CCOC(=O)CCC1(C)OC[C@H]2OC(n3cc(C)c(=O)[nH]c3=O)C[C@H]2N1O (stereo not given in full)	> 200	> 200 µM	–
CCCCCCCCCCCCSS(=O)(=O)c1ccccc1	> 75.9	> 75.9 µM	–
CC(=O)O/N=C/c1ncccc1OC(C)=O	> 1120	> 1120 µM	–
CC1(C)OC(=O)C(c2ccsc2)C(=O)O1	> 1100	589 µM	–
CCOC(=O)[C@H]1Nc2ccc(C)cc2C2c3ccccc3CC21 (stereo not given in full)	> 17	> 17 µM	–

Structure (SMILES)	EC50 [µM]	IC50	outcome
Cc1ccc2[nH]c3c(ncc4[nH]c5ccccc5c43)c2c1	> 19.1	3.89 µM	–
OC1c2ccccc2CC12Cc1ccccc1C2 (stereo not given)	> 200	145 µM	–
COC(=O)CSc1[nH]c2nc(C)nc(Nc3ccccc3)c2c1C#N	> 200	> 200 µM	–
C/C=C/C=Nc1c(C#N)c2n(c1C(=O)Nc1ccccc1)CCCC2	> 50.1	> 50.1 µM	–
Cn1cnc([N+](=O)[O-])c1Sc1nc2ccccc2o1	> 26.3	2.75 µM	–
N#CC12Cc3ccc4c(c3-c3cccc(c31)CCN2C(=O)c1ccccc1)OCO4 (stereo not given)	–	–	inactive
CC1=NN(C(=O)c2ccccc2O)C(=O)/C1=C/c1cccc([N+](=O)[O-])c1	> 141	0.0977 µM	–
CC(=O)OC1[C@@H](OC(C)=O)CN(OCc2ccccc2)C[C@H]1OC(C)=O (stereo not given in full)	> 200	> 200 µM	–
N#C/C(=C\c1ccc(O)c(O)c1)C(=O)NCCc1ccc(O)c(O)c1	> 200	30.9 µM	–
COc1cc2ccnc3c(=C(SC)SC)c(=O)c(c1OC)c23	–	–	inactive
C[C@]12CNC(=O)C=C1CC[C@@H]1C2CC[C@]2(C)NC(=O)CCC12 (stereo not given in full)	–	–	inactive
N#C/C(=C/N1C(=O)CC(=O)NC1=S)c1cccc(Cl)c1	182	> 200 µM	–
CC(=O)OC1=C(CC2CCCC2=O)C(=O)CC1 (stereo not given)	–	–	inactive
N#CC(Nc1cccc(C(F)(F)F)c1)c1ccccc1C(F)(F)F (stereo not given)	> 39.8	> 39.8 µM	–
NC(=O)c1cccc(C2OC(COP(=O)(O)O)C(O)C2O)c1 (stereo not given)	> 661	3.47 µM	–
COc1ccc(N=C2SC(=N/N=c3\sc4ccccc4n3C)SC2=Nc2ccc(OC)cc2)cc1	> 200	63.1 µM	–
CCS/C(SC)=C(/c1ccccc1)[P+](c1ccccc1)(c1ccccc1)c1ccccc1	> 20	0.355 µM	–
COc1ccc(/C(=N\NC(=S)NN)C(c2ccc(OC)cc2)C2C(=O)Oc3ccccc32)cc1 (stereo not given)	> 75.9	> 75.9 µM	–
O=C(O)C1Cc2c([nH]c3ccccc23)C=N1 (stereo not given)	–	–	inactive
N#Cc1c2nc3ccccc3nc2n2ccccc12	> 40.7	> 40.7 µM	–
O=C(NN1C(=O)C(Cl)C1c1cccc([N+](=O)[O-])c1)c1ccccc1O (stereo not given)	> 27.5	> 27.5 µM	–
COC1/C=C/OC2(C)Oc3c(C)c(O)c4c(O)c(c(/C=N/N5C(C)CN(Cc6ccccc6O)CC5C)c(O)c4c3C2=O)NC(=O)/C(C)=C\C=C\C(C)C(O)C(C)C(O)C(C)C(OC(C)=O)C1C (stereo not given)	> 200	9.55 µM	–
